Data: patent US11840551B2, “Compositions and methods of modulating the immune response by activating alpha protein kinase 1” (Shanghai Yao Yuan Biotechnology Co., Ltd., priority 2017, dated 2023)

Experiments:
ALPK1 [1] = target: T1, ALPK1 (Homo sapiens, UniProt Q96QP1); assay: Cell-free kinase assay of ALPK1 autophosphorylation (Western, anti-phospho-threonine); format: biochemical; details: 2 nM ALPK1 with ATP, 25° C., 1 h; H1b-ADP 10, 1, 0.2 nM; HBP and HMP-1bP 1, 10, 100 nM
Experimental: ALPK1 activation results in its autophosphorylation. Accordingly, we next asked whether the binding of H1b-ADP to ALPK1 was sufficient to induce ALPK1 autophosphorylation. Phosphorylation assays were performed according to standard protocols. Briefly, ALPK1 was incubated (2 nM, 25° C., 1 h) in assay buffer (20 μl, 25 mM HEPES pH 7.5, 50 mM KCl, 0.1 mM EDTA, 0.1 mM EGTA, 2 mM DTT, 1.5 mM CaCl2, 10 mM MgCl2) with ATP and chemically synthesized HBP, HMP-1bP, or H1b-ADP followed by denaturing gel electrophoresis and Western analysis with an anti-phospho-threonine antibody (CST) to detect autophosphorylation of ALPK1. […] The range of concentrations of HBP and HMP-1bP used in this assay (1 nM, 10 nM, 100 nM) was 10-fold higher than that used for H1b-ADP.

CT26 cells = assay: CT26 tumor xenograft model, tumor growth (tumor volume); format: in vivo, BALB/c mice
Experimental: We used a CT26 tumor xenograft model to test the anti-cancer activity of H1b-ADP. Tumor cells (2×10^5 per 100 uL CT26 cells) were inoculated subcutaneously into the right flank of BALB/c mice. At day 6, mice whose tumors had reached 3-5 mm in diameter were randomized and grouped into three groups (n=8 each group), control, HMP-1bP (580 ug), and H1b-ADP (1.2 ug). Injections were performed using a total volume of 20 uL at days 6, 8, 10, 12, and 14 post inoculation. Tumor volumes were calculated every 2 days from caliper measurements of tumor dimension using the formula (L×W^2)/2, where L is the longer measurement.
To test whether H1b-ADP could augment an anti-tumor response by a checkpoint inhibitor, we tested the effects of co-administration with an anti-PD1 antibody. Tumor cells (2×10^5 per 100 μL CT26 cells) were inoculated subcutaneously into the left and right flanks of BALB/c mice. At day 7, mice whose tumors had reached 5 mm in diameter were randomized and grouped (n=8 each group) into the following four groups: anti-PD1 antibody; rat IgG; H1b-ADP+rat IgG; H1b-ADP+anti-PD1 antibody. We utilized RMP1-14 as the anti-PD1 antibody (10 mg/kg) and a rat IgG 2a (2A3) as the control IgG. Each of the anti-PD-1 antibody and the control IgG was administered intraperitoneally in a 200 μL volume on days 6, 10, 12, and 17 post-inoculation. H1b-ADP (6.2 μg) was intratumorally injected in a 20 μL volume at day 6, 8, 10, 12, and 15. Tumor volumes were calculated every 2 days from caliper measurements of tumor dimensions using the formula (L×W^2)/2, where L is the longer measurement. The results are shown in FIG. 13A for injected tumors and FIG. 13B for distant tumors. […]
The experiment was carried out as combo experiments of anti-PD1 except for the following variations. At day 6, mice whose tumors had reached 5 mm in diameter were randomized and grouped into the following four groups: anti-CTLA-4 antibody; rat IgG; H1b-ADP+rat IgG; H1b-ADP+anti-CTLA-4 antibody. We utilized 9D9 (BioxCell) as the anti-CTLA-4 antibody and a rat IgG 2b isotype (MPC-11 clone, BE0086, BioXCell) as the control IgG. Each of the anti-CTLA-4 antibody (25 μg) and the control IgG (25 μg) was administered intraperitoneally in a 200 μL volume on days 6 and 9 post-inoculation. H1b-ADP (6.2 μg) was administered intratumorally in a 20 μL volume on days 6, 7, 9, 11 post-inoculation.
The experiment was carried out as combo experiments of anti-PD1 except for the following variations. At day 6, mice whose tumors had reached 5 mm in diameter were randomized and grouped into the following four groups: c-di-AM(PS)2; PBS; H1b-ADP; H1b-ADP+c-di-AM(PS)2. We utilized c-di-AM(PS)2 as the STING agonist. […]

ALPK1 [2] = target: T1, ALPK1; assay: In vitro kinase assay of ALPK1-dependent TIFA phosphorylation; format: biochemical
Experimental: We performed an in vitro kinase assay with H1b-ADP and H1b-ADP-6L along with ALPK1 protein (2 nM), and TIFA protein (1.6 uM) in kinase buffer containing 50 uM ATP. TIFA phosphorylation was analyzed by denaturing gel electrophoresis followed by western blotting using an anti-phosphothreonine antibody. H1b-ADP or H1b-ADP-6L was added at 2 nM, 0.4 nM, 80 pM, 16 pM, and 3 pM.
To test this, we performed an in vitro kinase reaction for ALPK1-dependent TIFA phosphorylation in the presence of either HBP or HIdA purified from E. coli containing inactivated HIdE, or in the presence of HBP and HIdA purified from the same HIdE wild-type E. coli used in the previous experiments. Phosphorylated TIFA (three concentrations, 1%, 0.2% and […]) was detected as described above by denaturing gel electrophoresis followed by Western analysis.

T1 sequence (Q96QP1 whole entry): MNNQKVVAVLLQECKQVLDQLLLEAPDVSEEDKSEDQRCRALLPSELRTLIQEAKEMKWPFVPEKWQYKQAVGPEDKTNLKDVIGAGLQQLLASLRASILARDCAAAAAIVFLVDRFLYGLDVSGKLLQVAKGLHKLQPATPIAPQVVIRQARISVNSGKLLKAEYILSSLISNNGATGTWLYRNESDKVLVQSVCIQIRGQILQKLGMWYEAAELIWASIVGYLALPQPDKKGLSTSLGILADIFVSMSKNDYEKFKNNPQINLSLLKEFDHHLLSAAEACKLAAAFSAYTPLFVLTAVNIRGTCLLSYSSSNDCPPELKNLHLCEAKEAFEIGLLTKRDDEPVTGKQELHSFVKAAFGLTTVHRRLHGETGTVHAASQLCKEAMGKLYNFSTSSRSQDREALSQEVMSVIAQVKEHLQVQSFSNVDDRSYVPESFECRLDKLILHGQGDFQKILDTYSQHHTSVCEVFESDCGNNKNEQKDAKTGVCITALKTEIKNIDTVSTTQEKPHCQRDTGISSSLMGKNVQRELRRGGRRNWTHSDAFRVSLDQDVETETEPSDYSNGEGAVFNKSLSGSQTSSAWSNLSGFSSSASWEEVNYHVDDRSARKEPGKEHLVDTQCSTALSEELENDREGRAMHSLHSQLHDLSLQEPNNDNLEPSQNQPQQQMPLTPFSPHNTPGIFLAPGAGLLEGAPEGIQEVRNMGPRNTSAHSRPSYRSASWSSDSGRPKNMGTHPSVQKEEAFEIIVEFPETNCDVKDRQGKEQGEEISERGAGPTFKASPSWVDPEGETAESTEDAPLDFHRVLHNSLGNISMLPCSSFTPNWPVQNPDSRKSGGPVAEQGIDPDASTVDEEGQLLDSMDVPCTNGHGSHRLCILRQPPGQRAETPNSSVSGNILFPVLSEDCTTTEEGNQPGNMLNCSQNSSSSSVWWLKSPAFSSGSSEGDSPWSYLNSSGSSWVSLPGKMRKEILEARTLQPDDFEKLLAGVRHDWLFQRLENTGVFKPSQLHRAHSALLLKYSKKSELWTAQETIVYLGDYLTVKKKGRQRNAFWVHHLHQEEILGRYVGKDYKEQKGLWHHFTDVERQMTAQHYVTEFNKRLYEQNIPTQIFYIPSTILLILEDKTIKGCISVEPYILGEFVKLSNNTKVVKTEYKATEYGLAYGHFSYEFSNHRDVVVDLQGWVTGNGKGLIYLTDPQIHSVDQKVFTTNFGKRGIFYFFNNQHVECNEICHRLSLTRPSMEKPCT

Compound | autophosphorylation of ALPK1 (ALPK1 [1]) | tumor growth (CT26 cells; intratumoral, days 6, 8, 10, 12, 14, HMP-1bP 580 ug, H1b-ADP 1.2 ug) | phosphorylation of the ALPK1 substrate TIFA (ALPK1 [2]; FIG. 7, chemically-synthesized compounds) | tumor growth (CT26 cells; Example 7, H1b-ADP 6.2 μg intratumoral, anti-PD1 antibody 10 mg/kg intraperitoneal, injected and distant tumors) | TIFA phosphorylation (ALPK1 [2]; ALPK1 2 nM, TIFA 1.6 uM, 50 uM ATP, compound 2 nM, 0.4 nM, 80 pM, 16 pM, 3 pM)
O=P(O)(O)O[C@@H]1O[C@H]([C@H](O)CO)[C@@H](O)[C@H](O)[C@@H]1O [HMP-1bP, D-glycero-β-D-manno-heptose-1-phosphate] | not HBP or HMP-1bP induces ATP-dependent autophosphorylation | but not HMP-1bP, reduced tumor growth | TIFA is phosphorylated only in the presence of H1b-ADP |  | 
Nc1ncnc2c1ncn2[C@@H]1O[C@H](COP(=O)(O)OP(=O)(O)O[C@@H]2O[C@H]([C@H](O)CO)[C@@H](O)[C@H](O)[C@@H]2O)[C@@H](O)[C@H]1O [Compound H1b-ADP, D-glycero-D-manno-heptose-1β-ADP] | phosphorylation of ALPK1 was detected only in the presence of H1b-ADP |  |  | markedly suppressed tumor growth | phosphorylation of the ALPK1 substrate TIFA
